# Results reported in patent US9526729B2, “Medicament for treating peripheral neuropathies” (priority 2013, dated 2016).
# Columns and labels:
# [1] = test system: Herpes simplex virus (HSV); test: Clinical cases of QTT-positive HSV-associated dermatitis treated with antiviral agent; format: in vivo, human
# Description: Step 100: Checking a potential disease (D) relates to a dermatosis or a non-skin disease. For example, some questions are given for the patient and the skin of the patient is checked by an experienced inspector or a medical staff to determine if a potential disease (D) had by the patent relates to a dermatosis or a non-skin disease. If the potential disease (D) relates to a dermatosis, the inspector or the medical staff will take some tissue samples from an affected part of a patient's skin, as illustrated in step 101, and the test in step 102 for testing the tissue samples from the patient's skin will continue. If the disease (D) relates to a non-skin disease, the inspector or the medical staff takes a tissue sample from a specific part, such as peripheral blood, skin, bone marrow, mucosa, saliva, cerebrospinal fluid, amniotic fluid, brain tissue, tears or skin secretions, of the patient, as illustrated in step 103, based on the method for testing the tissue sample in step 104, and then the test in step 104 for testing the tissue samples from the specific part of the patient will continue.
# (§1) Step 102: Performing a Quick Tzanck Test (QTT) process. The QTT process can be applied to the tissue samples from the patient's skin so as to reveal some histopathological changes from the QTT sample, i.e. the tissue samples from the patient's skin, by using a microscope. The inspector or the medical staff can observe the histopathological changes to diagnose HSV infection.
# Step 106: Treating an anti-HSV treatment of, for example, prescribing an anti-HSV medicine or an anti-HSV cream for the patient. The patient may take the anti-HSV medicine to cure the HSV infection. Alternatively, the patient may apply the anti-HSV cream onto the affected part of the patient's skin.
# (§2) 1. Adult: Valacyclovir (500 mg) • a. 2 tablets daily (i.e. 1 tablet after breakfast and dinner) for 5-7 days. • b. 3 tablets daily (i.e. every 8 hours) for severe cases in the beginning only.
# [2] = test system: Herpes simplex virus (HSV); test: Clinical cases of chilblain induced by HSV infection; format: in vivo, human; conditions: for clinical outcome, red swollen fingers with pain: 2nd case of chilblain
# Description: as §1
# (§3) Step 104: Performing an antibody testing or a PCR techniques on the tissue sample from the specific part of the patient. The antibody testing, such as the HSV IgG testing, the cytomegalovirus immunoglobulin G (CMV IgG) testing or the non-specific immunoglobulin E (IgE) testing is adapted to be performed on a peripheral blood, acting as the tissue sample, of the patient. The PCR testing is adapted to be performed on peripheral blood, skin, bone marrow, mucosa, saliva, cerebrospinal fluid, amniotic fluid, brain tissue, tears or skin secretions, acting as the tissue sample, of the patient. The antibody testing or PCR techniques may be referred to the description in the section of “Diagnosis of HSV Infection”. The normal titer for CMV IgG/HSV IgG is less than 2 and the normal titer for non-specific IgE is less than 170 IU/ml. When the tissue sample from peripheral blood of the patient has a titer for CMV IgG/HSV IgG greater than 2, the process of “anti-HSV treatments” in step 106 is then carried out. Otherwise, the step 108 of “other treatments” is carried out. Alternatively, when the result of detecting the tissue sample via the PCR techniques is positive, the process of “anti-HSV treatments” in step 106 is then carried out; when the result of detecting the tissue sample via the PCR techniques is negative, the step 108 of “other treatments” is carried out.
# as §2
# [3] = test system: Herpes simplex virus (HSV); test: Clinical cases of alopecia due to HSV infection; format: in vivo, human
# [4] = test system: Herpes simplex virus (HSV); test: Clinical cases of impetigo induced by HSV infection; format: in vivo, human; conditions: for clinical outcome, skin lesions: Acyclovir G. 10 mg/kg 4 times a day for 7 days + anti-allergic agents
# Protocol: as §1, with “The” for “Step 102: Performing a Quick Tzanck Test (QTT) process. The”
# as §2
# [5] = test system: recurrent erythema multiforme; conditions: continuous acyclovir therapy; double-blind trial in 1995 (Tatnall); cited from earlier work
# [6] = test system: Herpes simplex virus (HSV); test: Clinical cases of diabetic skin complications (psoriasiform plaques induced by HSV infection); format: in vivo, human; conditions: Acyclovir (400 mg) 3 tablets daily for 10 days then 2 tablets daily for 10 days + NBUVB + Gr. I and III topical CS; 7 days afterwards
# Description: as §3
# 1. […]
# [7] = molecular target: viral thymidine kinase (Human herpesvirus 1, UniProt P0DTH5); conditions: conversion into acyclo-guanosine monophosphate; cited from earlier work
# [8] = molecular target: viral polymerase (Human herpesvirus 1, UniProt P04293); conditions: cited from earlier work
# [9] = test system: Herpes simplex virus (HSV); test: Clinical cases of acne induced by HSV infection; format: in vivo, human; conditions: for clinical outcome, symptoms: 7 days later
# Protocol: as §1, §2
# Consequently, the treatment in the present invention of acne may comprise a cream or an ointment mixed by an Anti-HSV agent to put on the affected part of the patient, wherein the Anti-HSV agent comprises Valacyclovir or Acyclovir. For example, the ADO ointment used in this invention contains acyclovir, lidocaine and diclofenac.
# [10] = test system: Herpes simplex virus (HSV); test: Clinical cases of pyoderma gangrenosum induced by HSV infection; format: in vivo, human
# [11] = CASE 7, with anti-allergic agent and antibiotic ointment, 9 days later
# Chain of viral thymidine kinase (P0DTH5 whole entry): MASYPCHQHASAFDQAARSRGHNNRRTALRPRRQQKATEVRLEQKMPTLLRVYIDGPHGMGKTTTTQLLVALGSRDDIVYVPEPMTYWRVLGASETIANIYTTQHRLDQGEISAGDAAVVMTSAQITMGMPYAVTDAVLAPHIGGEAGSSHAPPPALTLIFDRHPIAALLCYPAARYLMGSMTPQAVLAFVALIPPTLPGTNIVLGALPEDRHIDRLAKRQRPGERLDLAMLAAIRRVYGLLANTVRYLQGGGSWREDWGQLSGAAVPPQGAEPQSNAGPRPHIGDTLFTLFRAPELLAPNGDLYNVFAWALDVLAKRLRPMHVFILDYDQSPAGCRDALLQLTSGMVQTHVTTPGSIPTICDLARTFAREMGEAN
# Chain of viral polymerase (P04293 whole entry): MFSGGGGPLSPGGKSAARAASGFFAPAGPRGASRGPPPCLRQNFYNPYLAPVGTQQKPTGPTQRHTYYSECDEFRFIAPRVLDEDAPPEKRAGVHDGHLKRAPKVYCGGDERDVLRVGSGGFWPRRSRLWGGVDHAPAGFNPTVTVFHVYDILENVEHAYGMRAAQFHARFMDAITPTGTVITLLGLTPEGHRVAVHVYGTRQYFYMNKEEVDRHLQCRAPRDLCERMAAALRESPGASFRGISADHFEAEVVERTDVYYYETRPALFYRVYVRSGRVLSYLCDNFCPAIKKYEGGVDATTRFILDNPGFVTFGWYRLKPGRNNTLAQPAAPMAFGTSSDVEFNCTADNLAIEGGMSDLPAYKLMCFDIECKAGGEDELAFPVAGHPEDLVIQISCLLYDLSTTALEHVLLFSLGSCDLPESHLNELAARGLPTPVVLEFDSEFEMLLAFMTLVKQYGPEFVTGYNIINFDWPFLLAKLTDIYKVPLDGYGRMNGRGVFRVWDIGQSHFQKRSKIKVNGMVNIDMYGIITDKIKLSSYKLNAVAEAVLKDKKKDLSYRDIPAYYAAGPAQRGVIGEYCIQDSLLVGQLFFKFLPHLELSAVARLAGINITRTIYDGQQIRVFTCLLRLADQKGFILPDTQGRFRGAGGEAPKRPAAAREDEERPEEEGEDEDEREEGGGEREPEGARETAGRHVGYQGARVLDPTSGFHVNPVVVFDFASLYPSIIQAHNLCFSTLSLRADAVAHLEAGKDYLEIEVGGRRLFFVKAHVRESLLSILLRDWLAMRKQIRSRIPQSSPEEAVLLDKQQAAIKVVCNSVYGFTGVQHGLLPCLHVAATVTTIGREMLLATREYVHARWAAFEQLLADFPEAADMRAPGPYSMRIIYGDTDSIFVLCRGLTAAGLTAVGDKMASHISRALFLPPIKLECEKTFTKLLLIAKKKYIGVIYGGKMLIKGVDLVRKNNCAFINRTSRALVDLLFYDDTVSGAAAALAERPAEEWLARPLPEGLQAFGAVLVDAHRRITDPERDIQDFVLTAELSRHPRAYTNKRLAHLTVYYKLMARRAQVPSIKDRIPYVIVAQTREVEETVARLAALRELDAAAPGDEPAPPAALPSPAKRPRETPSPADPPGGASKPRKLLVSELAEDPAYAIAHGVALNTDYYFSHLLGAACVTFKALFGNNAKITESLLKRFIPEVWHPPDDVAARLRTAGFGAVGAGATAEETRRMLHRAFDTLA
structure (smiles),measurement,setting,value
"Nc1nc(O)c2ncn(COCCO)c2n1 [Acyclovir, 2-Amino-1,9-dihydro-9-((2-hydroxyethoxy)methyl)-6H-purin-6-one]","clinical outcome, vesiculopapules and plaques","[1]; CASE 6, QTT positive, 2 days later",nearly no vesiculopapules and plaques over their trunk and upper extremity
same,"clinical outcome, earlier similar eruptions","[1]; Case 8, 5-7 days of acyclovir granules, 7 and 9 months ago",Completely disappearance of similar eruptions
same,"clinical outcome, swelling, pain, erosion","[2]; 1st case of chilblain, Acyclovir 200 mg 3 tablets daily for 7 days, 7 days later",The swelling and pain decreased a lot. The erosion improved
same,"clinical outcome, vesicopapules and pustules on back","[3]; 1st case of alopecia and acne-like eruption, after the treatment",only a few vesicopapules and pustules on their back
same,hair regrowth,"[3]; 1st case of alopecia, Acyclovir (400 mg) 3 tablets daily for 10 days and 2 tablets daily for 14 days + anti-allergic agent + Gr. III topical CS, 23 days later",Small white hairs appeared especially over central portion
same,"clinical outcome, skin lesions","[4]; 1st case of impetigo, antibiotics, 9 days later",only some erythema on their mandible and some small red erosions over right cheek
same,"clinical outcome, lesion","[4]; 2nd case of impetigo, Acyclovir G. 10 mg/kg 4 times a day for 7 days + antibiotics ointment, 3 days later","The lesion dried, desquamated and became flat"
same,recurrence,"[4]; 4th case of impetigo, about one year",no recurrence till now
same,"clinical outcome, skin lesions","[4]; 5th case of impetigo, Gr. IV topical corticosteroids, antibiotic ointment, 5 days later",some small erosions around their month and some vesiculopapules over the erythematosus eyelids
same,recurrence,"[4]; 5th case of impetigo, about 14 months",no recurrence till now
same,suppression of recurrent erythema multiforme,[5],completely suppressed
same,"clinical outcome, psoriasiform plaques",[6],Some lesions disappeared and the scaling of the psoriasiform plaques decreased a lot
same,effectiveness of viral thymidine kinase in phosphorylation versus cellular thymidine kinase,[7],3000 times
"Nc1nc2c(ncn2COCCOP(=O)(O)OP(=O)(O)OP(=O)(O)O)c(=O)[nH]1 [Acyclo-GTP, acyclo-guanosine triphosphate]",greater affinity for viral than cellular polymerase,[8],approximately 100 times
"CC(C)C(N)C(=O)OCCOCn1cnc2c(=O)nc(N)[nH]c21 (centres unmarked) [Valacyclovir, 2-[(2-amino-6-oxo-6,9-dihydro-3H-purin-9-yl)methoxy]ethyl-2-amino-3-methylbutanoate]","clinical outcome, vesicles and swelling of forearm","[1]; CASE 5, 2 days after Valacyclovir granule",Most of the vesicles became crusts and the swelling of their forearm improved a lot
same,"clinical outcome, anterior chest",[1]; [11],only few vesiculopapules over their anterior chest
same,"clinical outcome, lower abdomen",[1]; [11],nearly no punched out erosions over their lower abdomen
same,recurrence,"[1]; Case 9, follow-up after treatment",no recurrence for 2 years
same,"clinical outcome, vesicles","[1]; Case 9, with anti-allergic agent, 3 days after treatment",the roofs of the vesicles detached and became crusted erosions
same,"clinical outcome, skin lesion","[1]; Case 9, with anti-allergic agent, 7 days later",healed completely
same,"clinical outcome, red swollen fingers with pain",[2]; after 2nd prescriptions: Valacyclovir 1 tablets daily for 14 days + anti-allergic agent + ADO ointment 2 time daily,improved
same,"clinical outcome, red swollen fingers with pain",[2]; after 3rd prescriptions: Valacyclovir 1 tablets daily for 14 days + anti-allergic agent + ADO ointment 2 time daily,nearly cured
same,hair regrowth,"[3]; 1st case of alopecia, about 7 weeks after they finished Valacyclovir 2 tablets daily for 5 days",New hairs including black hairs increased a lot
same,"clinical outcome, pustule","[3]; 2nd case of alopecia, Valacyclovir 1 tablets daily for 95 days + anti-allergic agent + Acyclovir ointment for 6 weeks, a week later",The pustule disappeared
same,"clinical outcome, atrophic plague","[3]; 2nd case of alopecia, same regimen, 2 weeks later",nearly no change on the atrophic plague
same,hair regrowth,"[3]; 2nd case of alopecia, same regimen, 4 weeks later",hair increased obviously on the right side and posterior aspect
same,hair regrowth,"[3]; 2nd case of alopecia, same regimen, 16 weeks later",New black hairs (circle) were observed and no more alopecia on the right side
same,"clinical outcome, pustules and inflammation","[9]; 1st case of acne, Valacyclovir 2 tablets daily for 5 days + Nadifloxacin cream, 5 days later",The number of the pustules and the extent of inflammation decreased
same,"clinical outcome, pustules","[9]; 2nd case of acne, Valacyclovir 2 tablets daily for 5 days + ADO ointment, 8 days later",Nearly no pustules were seen
same,"clinical outcome, inflammation and comedoes","[9]; 3rd case of acne, Valacyclovir 2 tablets daily for 5 days per month + ADO ointment, 23 days later",The severe inflammation on the nose and over the left cheek decreased a lot
same,"clinical outcome, pustules","[9]; 4th case of acne, Valacyclovir 2 tablets daily for 5 days + anti-allergic agent + Gr. IV topical CS, 2 days later",Not only the number but also the size of the pustules decreased a lot
same,recurrence,"[9]; 4th case of acne, after completed medication, about one year",no recurrence till now
same,"clinical outcome, symptoms","[9]; 5th case of acne, Valacyclovir 2 tablets daily for 5 days + antibiotics 2 days + Nadifloxacin cream",Symptoms have significantly improved
same,"clinical outcome, symptoms","[9]; 6th case of acne, Valacyclovir 2 tablets daily for 5 days + Nadifloxacin cream + Gr. IV topical CS",Symptoms have significantly improved
same,"clinical outcome, erosions and oozing","[10]; 1st case of pyoderma gangrenosum, Valacyclovir 3 tablets daily for 10 days + anti-allergic agent, antibiotics ointment, Gr. III topical CS, 10 days later",no more erosions and oozing
same,"clinical outcome, vesicles","[4]; 3rd case of impetigo, Valacyclovir 2 tablets daily + anti-allergic agent, 3 days after the treatment",the vesicles found over their left neck 6 days ago collapsed
same,"clinical outcome, symptoms","[4]; 3rd case of impetigo, Valacyclovir 2 tablets daily for 7 days + anti-allergic agent + antibiotics 2 days, 7 days later",Symptoms have significantly improved
C[C@]12C=CC(=O)C=C1CC[C@@H]1[C@@H]2[C@@H](O)C[C@@]2(C)[C@H]1CC[C@]2(O)C(=O)CO [prednisolone],"clinical outcome, symptoms","[10]; 2nd case of pyoderma gangrenosum with ulcerative colitis, oral prednisolone 40 mg tapered + gentamycin ointment + mesalazine, no antiviral, 13 days later",Symptoms have significantly improved
